Data on 19 compounds can be found in patent US20130116241A1, “NOVEL INHIBITOR COMPOUNDS OF PHOSPHODIESTERASE TYPE 10A” (AbbVie Inc., priority 2011, published 2013).

A word on the IC50: it is the concentration needed to halve the response being measured.

Structures are written as SMILES. Counter-ions that a name gives are not always drawn. A value given as a limit tells only on which side of the number the result lay.

human PDE10A, sequence (Q9Y233 290-1055 limits assumed): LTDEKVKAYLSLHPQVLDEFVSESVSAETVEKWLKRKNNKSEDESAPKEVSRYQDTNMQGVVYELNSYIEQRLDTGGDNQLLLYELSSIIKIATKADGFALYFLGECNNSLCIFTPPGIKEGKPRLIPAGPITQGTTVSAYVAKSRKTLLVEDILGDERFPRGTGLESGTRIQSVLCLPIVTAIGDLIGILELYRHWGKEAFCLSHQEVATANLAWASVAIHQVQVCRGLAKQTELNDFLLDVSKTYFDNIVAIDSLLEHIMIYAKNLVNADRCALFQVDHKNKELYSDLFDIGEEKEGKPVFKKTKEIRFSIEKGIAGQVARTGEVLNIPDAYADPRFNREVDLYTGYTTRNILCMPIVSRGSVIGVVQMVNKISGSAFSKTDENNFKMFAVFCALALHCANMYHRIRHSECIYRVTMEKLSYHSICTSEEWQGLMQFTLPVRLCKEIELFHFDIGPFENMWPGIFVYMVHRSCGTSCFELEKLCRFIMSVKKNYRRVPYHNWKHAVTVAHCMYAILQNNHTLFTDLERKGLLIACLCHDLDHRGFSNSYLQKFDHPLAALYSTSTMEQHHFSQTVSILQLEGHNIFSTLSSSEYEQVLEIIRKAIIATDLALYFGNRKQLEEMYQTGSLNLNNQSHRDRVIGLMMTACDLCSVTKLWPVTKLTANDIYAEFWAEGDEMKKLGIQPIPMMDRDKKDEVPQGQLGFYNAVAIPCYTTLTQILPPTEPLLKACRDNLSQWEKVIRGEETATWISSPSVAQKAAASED

One assay has as its target human PDE10A (UniProt Q9Y233). Briefly: Measurement of PDE activity (recombinant enzyme, HTRF cAMP kit). The assay is classed as biochemical. The note with it: Table 1, substrate 20 nM for PDE10, 60 minutes at 29 C. The method in brief: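 Recombinant human PDE10A (10–250 pM range across PDEs) with 20 nM cAMP substrate in 20 mM Tris-HCl pH 7.5, 10 mM MgCl2, 0.1% BSA, compound pre-mixed with enzyme. Ran 60 min at 29 °C. Remaining cAMP read by HTRF, converted to % of uninhibited activity, and IC50 fitted.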
(In general: TR-FRET usually uses a lanthanide donor and a delayed reading to cut background.)
Consider `O=c1c2c(N3C4CCC3COC4)cccc2ccn1C1CC1c1ccc2ccccc2n1` [Example 263, anti 8-((1R,5S)-3-oxa-8-azabicyclo[3.2.1]octan-8-yl)-2-(2-(quinolin-2-yl)cyclopropyl)isoquinolin-1(2H)-one], for which the IC50 was less than 100 nM.

Staying with this assay, now noted: Table 1, substrate 20 nM for PDE10, 60 minutes at 29 C, read-out: IC50.
Turning to `O=c1c2c(N3CC[C@H](O)C3)cccc2ccn1C1CC1c1ccc2ccccc2n1` (stereo partly drawn) [Example 249, anti 8-((3S)-3-hydroxypyrrolidin-1-yl)-2-(2-(quinolin-2-yl)cyclopropyl)isoquinolin-1(2H)-one di[(2E)-but-2-enedioate]], the IC50 lay in the range of 200 to 500 nM.
The same measure, in the same setting: in the case of `O=c1c2c(N3CC[C@@H](O)C3)cccc2ccn1C1CC1c1ccc2ccccc2n1` (stereo partly drawn) [Example 250, anti 8-((3R)-3-hydroxypyrrolidin-1-yl)-2-(2-(quinolin-2-yl)cyclopropyl)isoquinolin-1(2H)-one (2E)-but-2-enedioate] it was 100 to 200 nM; in that of `O=c1c2c(-c3ccncc3)cccc2ccn1C1CC1c1ccc2ccccc2n1` (stereo not drawn) [Example 256, syn 8-(pyridin-4-yl)-2-(2-(quinolin-2-yl)cyclopropyl)isoquinolin-1(2H)-one hydrochloride], less than 100 nM.
For `O=c1c2c(C3CCOCC3)cccc2ccn1C1CC1c1ccc2ccccc2n1` (stereo not drawn) [Example 257, anti 2-(2-(quinolin-2-yl)cyclopropyl)-8-(tetrahydro-2H-pyran-4-yl)isoquinolin-1(2H)-one], the IC50 is less than 100 nM.
On to `O=c1c2c(N3CCC(C(F)F)C3)cccc2ccn1C1CC1c1ccc2ccccc2n1` (stereo not drawn) [Example 262, anti 8-(3-(difluoromethyl)pyrrolidin-1-yl)-2-(2-(quinolin-2-yl)cyclopropyl)isoquinolin-1(2H)-one, trifluoroacetate], for which the IC50 fell in the range of 100 to 200 nM.
Turning to `O=c1c2c(N3C[C@H]4CC[C@@H](C3)O4)cccc2ccn1C1CC1c1ccc2ccccc2n1` (stereo partly drawn) [Example 266, 8-((1R,5S)-8-oxa-3-azabicyclo[3.2.1]octan-3-yl)-2-(2-(quinolin-2-yl)cyclopropyl)isoquinolin-1(2H)-one], the IC50 was less than 100 nM.
The same measure, in the same setting: in the case of `O=c1c2c(-c3ccoc3)cccc2ccn1C1CC1c1ccc2ccccc2n1` (stereo not drawn) [Example 268, anti 8-(furan-3-yl)-2-(2-(quinolin-2-yl)cyclopropyl)isoquinolin-1(2H)-one] it was less than 100 nM; in that of `O=c1c2c(C3=COCC3)cccc2ccn1C1CC1c1ccc2ccccc2n1` (stereo not drawn) [Example 269, anti 8-(4,5-dihydrofuran-3-yl)-2-(2-(quinolin-2-yl)cyclopropyl)isoquinolin-1(2H)-one], less than 100 nM.
As for `O=c1c2c(-c3cccnc3)cccc2ccn1C1CC1c1ccc2cc(F)ccc2n1` (stereo not shown) [Example 272], the IC50 was less than 100 nM.
Regarding `O=c1c2c(-c3ccncc3)cccc2ccn1C1CC1c1ccc2cc(F)ccc2n1` (stereo not shown) [Example 274], the 50% inhibitory concentration (IC50) was less than 100 nM.
As to `O=c1c2c(-c3ccncc3)cccc2c(F)cn1C1CC1c1ccc2ccccc2n1` (stereo not drawn) [Example 275, anti 4-fluoro-8-(pyridin-4-yl)-2-(2-(quinolin-2-yl)cyclopropyl)isoquinolin-1(2H)-one], the IC50 is less than 100 nM.
Turning to `O=c1c2c(-c3ccncc3)cncc2cnn1CCc1ccc2ccccc2n1` [Example 301, 8-(pyridin-4-yl)-2-[2-(quinolin-2-yl)ethyl]pyrido[3,4-d]pyridazin-1(2H)-one], the IC50 was less than 100 nM.
On the same count and under the same terms, in the case of `O=c1c2c(-c3ccncc3)csc2c(F)cn1C1CC1c1ccc2ccccc2n1` (stereo not shown) [compound 279] it was less than 100 nM; in that of `O=c1c2c(-c3ccnc(F)c3)csc2ccn1C1CC1c1ccc2cc(F)ccc2n1` (stereo not shown) [compound 280], less than 100 nM.
On the same count and under the same terms, next, `O=c1c2c(-c3ccncc3)csc2ccn1C1CC1c1ccc2cc(F)ccc2n1` (stereo not shown) [compound 281]: less than 100 nM; `O=c1c2c(-c3cncnc3)csc2ccn1C1CC1c1ccc2ccccc2n1` (stereo not shown) [compound 282]: less than 100 nM.
For `O=c1c2c(-c3ccc(F)nc3)csc2ccn1C1CC1c1ccc2ccccc2n1` (stereo not shown) [compound 283], the IC50 was less than 100 nM.
On the same count and under the same terms, next, `Cc1ncc(-c2csc3ccn(C4CC4c4ccc5ccccc5n4)c(=O)c23)cn1` (stereo not shown) [compound 284]: less than 100 nM.
